# Species: Rattus norvegicus
# Test: DrugMatrix - Regimen: Daily Repeat
# Format: toxicity, organism-based, Sprague-Dawley
# Set-up: regimen Daily Repeat, gender Male, age 6-8 weeks
# Conditions: in vivo, po, route oral GAVAGE, vehicle 100 % WATER; for BASOPHIL / EOSINOPHIL / ERYTHROCYTE COUNT / HEMATOCRIT / HEMOGLOBIN / LEUKOCYTE COUNT / LYMPHOCYTE / MEAN CORPUSCULAR HEMOGLOBIN / MEAN CORPUSCULAR HEMOGLOBIN CONCENTRATION / MEAN CORPUSCULAR VOLUME / MONOCYTE / NEUTROPHIL / PLATELET COUNT: tissue Blood; for ALANINE AMINOTRANSFERASE / ALBUMIN / ALKALINE PHOSPHATASE / ASPARTATE AMINOTRANSFERASE / BLOOD UREA NITROGEN / CARBON DIOXIDE / CHLORIDE / CHOLESTEROL / CREATINE PHOSPHOKINASE / CREATININE / GLUCOSE / LACTATE DEHYDROGENASE / LIPASE / PHOSPHORUS / POTASSIUM / SODIUM / TOTAL BILIRUBIN / TOTAL PROTEIN / URIC ACID: tissue Plasma
# [1] = 0 mg/kg, 96 h, dose level Control, time 4 day
# [2] = 0 mg/kg, […], dose level Control, time 6 day
# [3] = 0 mg/kg, […], dose level Control, time 14 day
# [4] = […], 96 h, dose 1.6 mg/Kg, dose level High, time 4 day
# [5] = […], dose 1.6 mg/Kg, dose level High, time 6 day
# [6] = […], dose 1.6 mg/Kg, dose level High, time 14 day
compound,measurement,setting,value
O=[Se](=O)([O-])[O-].[Na+].[Na+] [SODIUM SELENATE],BASOPHIL,[1],0.47%
same,EOSINOPHIL,[1],0.58%
same,ERYTHROCYTE COUNT,[1],6.84 x10E6/uL
same,HEMATOCRIT,[1],44.27%
same,HEMOGLOBIN,[1],14.08 G/DL
same,LEUKOCYTE COUNT,[1],13.39 x10E3/uL
same,LYMPHOCYTE,[1],83.57%
same,MEAN CORPUSCULAR HEMOGLOBIN,[1],20.57 pg
same,MEAN CORPUSCULAR HEMOGLOBIN CONCENTRATION,[1],31.77 G/DL
same,MEAN CORPUSCULAR VOLUME,[1],64.68 fL
same,MONOCYTE,[1],1.92%
same,NEUTROPHIL,[1],12.95%
same,PLATELET COUNT,[1],1533.67 x10E3/uL
same,ALANINE AMINOTRANSFERASE,[1],28.17 u/L
same,ALBUMIN,[1],3.82 G/DL
same,ALKALINE PHOSPHATASE,[1],354.33 u/L
same,ASPARTATE AMINOTRANSFERASE,[1],73.83 u/L
same,BLOOD UREA NITROGEN,[1],16 mg/dL
same,CARBON DIOXIDE,[1],27.17 mmol/L
same,CHLORIDE,[1],104.83 MEQ/L
same,CHOLESTEROL,[1],83.33 mg/dL
same,CREATINE PHOSPHOKINASE,[1],288 u/L
same,CREATININE,[1],0.33 mg/dL
same,GLUCOSE,[1],181.33 mg/dL
same,LACTATE DEHYDROGENASE,[1],173.17 u/L
same,LIPASE,[1],17.67 u/L
same,PHOSPHORUS,[1],11.5 mg/dL
same,POTASSIUM,[1],6.8 MEQ/L
same,SODIUM,[1],147 MEQ/L
same,TOTAL BILIRUBIN,[1],0.35 mg/dL
same,TOTAL PROTEIN,[1],6.35 G/DL
same,URIC ACID,[1],1.55 mg/dL
same,BASOPHIL,[2],0.33%
same,EOSINOPHIL,[2],0.85%
same,ERYTHROCYTE COUNT,[2],6.98 x10E6/uL
same,HEMATOCRIT,[2],38.58%
same,HEMOGLOBIN,[2],14.25 G/DL
same,LEUKOCYTE COUNT,[2],11.01 x10E3/uL
same,LYMPHOCYTE,[2],85.07%
same,MEAN CORPUSCULAR HEMOGLOBIN,[2],20.47 pg
same,MEAN CORPUSCULAR HEMOGLOBIN CONCENTRATION,[2],31.45 G/DL
same,MEAN CORPUSCULAR VOLUME,[2],64.9 fL
same,MONOCYTE,[2],1.9%
same,NEUTROPHIL,[2],11.42%
same,PLATELET COUNT,[2],1289.67 x10E3/uL
same,BASOPHIL,[3],0.52%
same,EOSINOPHIL,[3],0.55%
same,ERYTHROCYTE COUNT,[3],7.72 x10E6/uL
same,HEMATOCRIT,[3],51.87%
same,HEMOGLOBIN,[3],15.32 G/DL
same,LEUKOCYTE COUNT,[3],16.2 x10E3/uL
same,LYMPHOCYTE,[3],85.13%
same,MEAN CORPUSCULAR HEMOGLOBIN,[3],19.85 pg
same,MEAN CORPUSCULAR HEMOGLOBIN CONCENTRATION,[3],29.52 G/DL
same,MEAN CORPUSCULAR VOLUME,[3],67.17 fL
same,MONOCYTE,[3],1.7%
same,NEUTROPHIL,[3],11.6%
same,PLATELET COUNT,[3],1104.17 x10E3/uL
same,ALANINE AMINOTRANSFERASE,[2],28.17 u/L
same,ALBUMIN,[2],3.78 G/DL
same,ALKALINE PHOSPHATASE,[2],385.33 u/L
same,ASPARTATE AMINOTRANSFERASE,[2],78 u/L
same,BLOOD UREA NITROGEN,[2],16.83 mg/dL
same,CARBON DIOXIDE,[2],26.67 mmol/L
same,CHLORIDE,[2],106.83 MEQ/L
same,CHOLESTEROL,[2],82.67 mg/dL
same,CREATINE PHOSPHOKINASE,[2],225.5 u/L
same,CREATININE,[2],0.27 mg/dL
same,GLUCOSE,[2],179.5 mg/dL
same,LACTATE DEHYDROGENASE,[2],98.33 u/L
same,LIPASE,[2],14.67 u/L
same,PHOSPHORUS,[2],12.28 mg/dL
same,POTASSIUM,[2],7.03 MEQ/L
same,SODIUM,[2],150.33 MEQ/L
same,TOTAL BILIRUBIN,[2],0.38 mg/dL
same,TOTAL PROTEIN,[2],6.45 G/DL
same,URIC ACID,[2],1.6 mg/dL
same,ALANINE AMINOTRANSFERASE,[3],37 u/L
same,ALBUMIN,[3],4.13 G/DL
same,ALKALINE PHOSPHATASE,[3],342 u/L
same,ASPARTATE AMINOTRANSFERASE,[3],71 u/L
same,BLOOD UREA NITROGEN,[3],16.5 mg/dL
same,CARBON DIOXIDE,[3],28.17 mmol/L
same,CHLORIDE,[3],104 MEQ/L
same,CHOLESTEROL,[3],70.67 mg/dL
same,CREATINE PHOSPHOKINASE,[3],287.67 u/L
same,CREATININE,[3],0.38 mg/dL
same,GLUCOSE,[3],150.17 mg/dL
same,LACTATE DEHYDROGENASE,[3],81.33 u/L
same,LIPASE,[3],16 u/L
same,PHOSPHORUS,[3],11.32 mg/dL
same,POTASSIUM,[3],6.22 MEQ/L
same,SODIUM,[3],147.33 MEQ/L
same,TOTAL BILIRUBIN,[3],0.43 mg/dL
same,TOTAL PROTEIN,[3],6.55 G/DL
same,URIC ACID,[3],1.38 mg/dL
same,BASOPHIL,[4],0.33%
same,EOSINOPHIL,[4],0.73%
same,ERYTHROCYTE COUNT,[4],6.6 x10E6/uL
same,HEMATOCRIT,[4],40.23%
same,HEMOGLOBIN,[4],12.93 G/DL
same,LEUKOCYTE COUNT,[4],11.54 x10E3/uL
same,LYMPHOCYTE,[4],85%
same,MEAN CORPUSCULAR HEMOGLOBIN,[4],19.6 pg
same,MEAN CORPUSCULAR HEMOGLOBIN CONCENTRATION,[4],32.13 G/DL
same,MEAN CORPUSCULAR VOLUME,[4],60.97 fL
same,MONOCYTE,[4],1.8%
same,NEUTROPHIL,[4],11.6%
same,PLATELET COUNT,[4],1460.67 x10E3/uL
same,ALANINE AMINOTRANSFERASE,[4],31.33 u/L
same,ALBUMIN,[4],3.73 G/DL
same,ALKALINE PHOSPHATASE,[4],296.67 u/L
same,ASPARTATE AMINOTRANSFERASE,[4],69.67 u/L
same,BLOOD UREA NITROGEN,[4],16 mg/dL
same,CARBON DIOXIDE,[4],24 mmol/L
same,CHLORIDE,[4],107.67 MEQ/L
same,CHOLESTEROL,[4],75.33 mg/dL
same,CREATINE PHOSPHOKINASE,[4],411.33 u/L
same,CREATININE,[4],0.4 mg/dL
same,GLUCOSE,[4],170.67 mg/dL
same,LACTATE DEHYDROGENASE,[4],107.33 u/L
same,LIPASE,[4],18 u/L
same,PHOSPHORUS,[4],11.1 mg/dL
same,POTASSIUM,[4],6.2 MEQ/L
same,SODIUM,[4],148.33 MEQ/L
same,TOTAL BILIRUBIN,[4],0.4 mg/dL
same,TOTAL PROTEIN,[4],6.2 G/DL
same,URIC ACID,[4],1.3 mg/dL
same,BASOPHIL,[5],0.27%
same,EOSINOPHIL,[5],0.3%
same,ERYTHROCYTE COUNT,[5],7.08 x10E6/uL
same,HEMATOCRIT,[5],44.53%
same,HEMOGLOBIN,[5],14.1 G/DL
same,LEUKOCYTE COUNT,[5],12.82 x10E3/uL
same,LYMPHOCYTE,[5],83.7%
same,MEAN CORPUSCULAR HEMOGLOBIN,[5],19.97 pg
same,MEAN CORPUSCULAR HEMOGLOBIN CONCENTRATION,[5],31.7 G/DL
same,MEAN CORPUSCULAR VOLUME,[5],62.9 fL
same,MONOCYTE,[5],2.23%
same,NEUTROPHIL,[5],13.07%
same,PLATELET COUNT,[5],1297.33 x10E3/uL
same,BASOPHIL,[6],0.42%
same,EOSINOPHIL,[6],0.92%
same,ERYTHROCYTE COUNT,[6],8.04 x10E6/uL
same,HEMATOCRIT,[6],52.44%
same,HEMOGLOBIN,[6],15.34 G/DL
same,LEUKOCYTE COUNT,[6],13.75 x10E3/uL
same,LYMPHOCYTE,[6],84.4%
same,MEAN CORPUSCULAR HEMOGLOBIN,[6],19.12 pg
same,MEAN CORPUSCULAR HEMOGLOBIN CONCENTRATION,[6],29.26 G/DL
same,MEAN CORPUSCULAR VOLUME,[6],65.28 fL
same,MONOCYTE,[6],2.18%
same,NEUTROPHIL,[6],11.62%
same,PLATELET COUNT,[6],1231.6 x10E3/uL
same,ALANINE AMINOTRANSFERASE,[5],33 u/L
same,ALBUMIN,[5],4.03 G/DL
same,ALKALINE PHOSPHATASE,[5],331 u/L
same,ASPARTATE AMINOTRANSFERASE,[5],80 u/L
same,BLOOD UREA NITROGEN,[5],16.33 mg/dL
same,CARBON DIOXIDE,[5],23.67 mmol/L
same,CHLORIDE,[5],108.67 MEQ/L
same,CHOLESTEROL,[5],74.67 mg/dL
same,CREATINE PHOSPHOKINASE,[5],413 u/L
same,CREATININE,[5],0.37 mg/dL
same,GLUCOSE,[5],182.67 mg/dL
same,LACTATE DEHYDROGENASE,[5],123 u/L
same,LIPASE,[5],8 u/L
same,PHOSPHORUS,[5],12.5 mg/dL
same,POTASSIUM,[5],6.73 MEQ/L
same,SODIUM,[5],151.67 MEQ/L
same,TOTAL BILIRUBIN,[5],0.37 mg/dL
same,TOTAL PROTEIN,[5],6.83 G/DL
same,URIC ACID,[5],1.77 mg/dL
same,ALANINE AMINOTRANSFERASE,[6],40.4 u/L
same,ALBUMIN,[6],4.2 G/DL
same,ALKALINE PHOSPHATASE,[6],262.8 u/L
same,ASPARTATE AMINOTRANSFERASE,[6],72.4 u/L
same,BLOOD UREA NITROGEN,[6],16.4 mg/dL
same,CARBON DIOXIDE,[6],27.4 mmol/L
same,CHLORIDE,[6],104.4 MEQ/L
same,CHOLESTEROL,[6],63.8 mg/dL
same,CREATINE PHOSPHOKINASE,[6],181 u/L
same,CREATININE,[6],0.42 mg/dL
same,GLUCOSE,[6],154.8 mg/dL
same,LACTATE DEHYDROGENASE,[6],91 u/L
same,LIPASE,[6],11.6 u/L
same,PHOSPHORUS,[6],11.26 mg/dL
same,POTASSIUM,[6],6.38 MEQ/L
same,SODIUM,[6],148.4 MEQ/L
same,TOTAL BILIRUBIN,[6],0.4 mg/dL
same,TOTAL PROTEIN,[6],6.72 G/DL
same,URIC ACID,[6],1.52 mg/dL

# From ChEMBL document CHEMBL3885881, “DrugMatrix”
